The record followed here is patent US8415357B2 (Canbas Co., Ltd., priority 2007, dated 2013).

For one assay, the system named is Jurkat cells. In words: Adaptation to G2 cell cycle arrest (G1 increment) in X-ray pre-arrested Jurkat cells, flow cytometry. Type of assay: cell-based, human. As to conditions: Homo sapiens, Jurkat, 24 h, Table 1; concentration causing half-maximal increase of % cells in G1 phase (G1 increment); Jurkat pre-arrested by 10 Gy X-ray, 24 hours with compound. Here is the method: Phenotype-based screening was used to measure the ability of compounds of the invention to cause adaptation to G2 cell cycle arrest in G2-arrested cells. Adaptation to G2 cell cycle arrest and re-entry into the cell cycle can result in death of the previously G2-arrested cell, or suppression (inhibition) of further proliferation of the previously G2-arrested cell. In a non-limiting embodiment, the ability to cause adaptation to G2 cell cycle arrest was measured by contacting cells in which G2 arrest had been induced by irradiation (e.g., gamma (γ) radiation or X-ray radiation), with compounds of the invention at various concentrations and, for each compound at each concentration, determining the percentage of cells that escaped G2 arrest and re-entered the cell cycle, by determining the percentage of cells in G1 phase. The IC50 value for each compound was calculated as the dosage (usually in μM) that caused half-maximal increase of the percentage of cells in G1 phase (the G1 increment) measured for that compound. Certain invention compounds were initially identified by phenotype-based screening of small molecule libraries for activity against G2-arrested cells as described above.
Jurkat cells (a human T cell lymphoma-derived cell line) were arrested at the G2 phase by X-ray irradiation at 10 Gy, and cultured for 24 hours in 10% fetal calf serum (FCS)/RPMI1640 at 37° C. with 5% CO2/air. (FCS was from Equitech-Bio, Kerrville, Tex., and RPMI1640 was from Sigma-Aldrich, St. Louis, Mo.) Test compounds were added to the medium at the indicated doses, and the cells were cultured under the conditions described above, for an additional 24 hours before harvesting.
Harvested cells were stained with Krishan's buffer (0.1% sodium citrate, 50 μg/ml propidium iodide, 20 μg/ml RNase A, 0.5% Nonidet P-40) and analyzed by flow cytometry (BD Biosciences, Franklin Lakes, N.J.) to identify the cell stage of each cell in the sample. Cells in G1 phase were identified by having […] (2N) DNA content.
The IC50 value for each compound was calculated as the dosage showing half maximal activity to induce the increase of the percentage of cells in G1 phase (the G1 increment). IC50 values were used to measure the activity of compounds and to determine structure-activity relationships.
Pre-arrested Jurkat cells were prepared as described in Example 1. Briefly, Jurkat cells were subjected to X-ray irradiation at a dose of 10 Gy, and cultured for 24 hours in 10% fetal calf serum (FCS)/RPMI1640 at 37° C. with 5% CO2/air, after which time cells were exposed to various concentrations of test compounds, and cultured under the conditions described above for an additional 24 hours before harvesting. Harvested cells were stained with Krishan's buffer (0.1% sodium citrate, 50 μg/ml propidium iodide, 20 μg/ml RNase A, 0.5% Nonidet P-40) and analyzed by flow cytometry (BD Biosciences, Franklin Lakes, N.J.) to identify the cell stage of each cell in the sample. Cells in G1 phase were identified by having […] (2N) DNA content.
The IC50 value for each compound was calculated as the dosage (concentration in μM) that caused half-maximal increase of the percentage of cells in G1 phase (the G1 increment) measured for that test compound. Table 1 below presents the structure, mass, 1H NMR values, and […] values for representative compounds.
The IC50 value for each compound was calculated as the dosage (concentration in μM) that caused half-maximal increase of the percentage of cells in G1 phase (the G1 increment) measured for that test compound. Table 2 below presents structures, IUPAC name, molecular formula, ID number (“SCID”), mass, 1H NMR values, and IC50 values for representative compounds. Table 3 presents structures, IUPAC name, molecular formula, ID number (“SCID”), mass, 1H NMR values, and IC50 values for further representative compounds.
(In general: In flow cytometry, cells or beads pass a laser one at a time.)
With `CSCc1cc(C(F)(F)F)ccc1NN1C(=O)C(C)=C(C)C1=O` [Compound S00499], the IC50 was 5000 nM.
Consider `CC1=C(C)C(=O)N(Nc2cc(C(F)(F)F)ccc2C)C1=O` [Compound S00512], for which the IC50 amounted to 5000 nM.
Take `CC1=C(C)C(=O)N(Cc2ccc(C(F)(F)F)c(Cl)c2)C1=O` [Compound S00513]: the IC50 came out at 5000 nM.
The same measure, in the same setting: the figure for `CC1=C(C)C(=O)N(Nc2ccc(-c3ccccc3)cc2)C1=O` [Compound S00515] is 20000 nM; for `CC1=C(C)C(=O)N(Nc2ccc(Br)c(C(F)(F)F)c2)C1=O` [Compound S00516, 1-{[4-bromo-3-(trifluoromethyl)phenyl]amino}-3,4-dimethylazoline-2,5-dione] it is 1250 nM.
As to `CC1=C(C)C(=O)N(C(C)c2ccc(Br)cc2)C1=O` (stereo not drawn) [Compound S00543], the IC50 was found to be 60000 nM.
`CC1=C(C)C(=O)N(Nc2ccc3cccc(Cl)c3n2)C1=O` [Compound S00585, 1-[(8-chloro(2-quinolyl))amino]-3,4-dimethylazoline-2,5-dione]: the IC50 turned out to be 450 nM.
Take `CC1=C(C)C(=O)N(N(C)c2cc(Cl)cc(Cl)c2)C1=O` [Compound S00587]: the IC50 was found to be 2500 nM.
The same measure, in the same setting: the figure for `CC1=C(C)C(=O)N(Nc2nc3ccc(Cl)cc3s2)C1=O` [Compound S00590] is 5000 nM; for `CC1=C(C)C(=O)N(Nc2ccc3cc(Cl)ccc3n2)C1=O` [Compound S00622] it is 5000 nM; for `CC1=C(C)C(=O)N(Nc2cc(C(F)(F)F)ccc2Br)C1=O` [Compound S00623] it is 10000 nM.
Take `CC1=C(C)C(=O)N(Nc2ccc(C(F)(F)F)cc2Br)C1=O` [Compound S00624]: the IC50 is 10000 nM.
With `CC1=C(C)C(=O)N(Nc2cccc(C(C)(C)C)c2)C1=O` [Compound S00627], the IC50 was determined as 2000 nM.
On to `CC1=C(C)C(=O)N(Oc2ccc(C)cc2)C1=O` [Compound S00628], for which the IC50 is 60000 nM.
With `CC1=C(C)C(=O)N(Nc2cc(C(C)(C)C)ccc2Br)C1=O` [Compound S00649], the IC50 was found to be 10000 nM.
For the compound `CC1=C(C)C(=O)N(Nc2ccc3ccccc3c2)C1=O` [Compound S00651], the IC50 was determined as 10000 nM.
The same measure, in the same setting: the same measure for `CC1=C(C)C(=O)N(N2CCc3cc(C)ccc32)C1=O` [Compound S00662]: 60000 nM; for `CC1=C(C)C(=O)N(n2ccc3cc(C)ccc32)C1=O` [Compound S00663]: 40000 nM; for `CC1=C(C)C(=O)N(Nc2ccc(C)c(C(F)(F)F)c2)C1=O` [Compound S00697]: 2500 nM.
For the compound `CC1=C(C)C(=O)N(Nc2ccc3c(c2)C(C)(C)CCC3(C)C)C1=O` [Compound S00698], the IC50 was 5000 nM.
Take `CC1=C(C)C(=O)N(Nc2ccc(C(F)(F)F)cc2Cl)C1=O` [Compound S00699]: the 50% inhibitory concentration (IC50) is 10000 nM.
As for `CC1=C(C)C(=O)N(Nc2ccc(Cl)c3ccccc23)C1=O` [Compound S00738, 1-[(4-chloronaphthyl)amino]-3,4-dimethylazoline-2,5-dione], the IC50 is 630 nM.
Regarding `CC1=C(C)C(=O)N(Nc2nc3c(Cl)cccc3s2)C1=O` [Compound S00756], the IC50 worked out at 1250 nM.

The assay is the same for the next values; noted with them: Homo sapiens, Jurkat, 24 h, Table 2; concentration causing half-maximal increase of % cells in G1 phase (G1 increment); Jurkat pre-arrested by 10 Gy X-ray, 24 hours with compound.
For the compound `CC1=C(C)C(=O)N(Nc2ccc(Br)c(C(F)(F)F)c2)C1=O` [Compound S00516, 1-{[4-bromo-3-(trifluoromethyl)phenyl]amino}-3,4-dimethylazoline-2,5-dione], the IC50 is 625 nM.
Regarding `CC1=C(C)C(=O)N(Nc2ccc3cccc(Cl)c3n2)C1=O` [Compound S00585, 1-[(8-chloro(2-quinolyl))amino]-3,4-dimethylazoline-2,5-dione], the concentration for half-maximal inhibition (IC50) was determined as 300 nM.
`CC1=C(C)C(=O)N(Nc2ccc(Cl)c3ccccc23)C1=O` [Compound S00738, 1-[(4-chloronaphthyl)amino]-3,4-dimethylazoline-2,5-dione]: the IC50 was 625 nM.
On to `CC1=C(C)C(=O)N(Nc2cc(Cl)c(Cl)c(Cl)c2)C1=O` [Compound S00832, 3,4-dimethyl-1-[(3,4,5-trichlorophenyl)amino]azoline-2,5-dione], for which the IC50 was 300 nM.
For `CC1=C(C)C(=O)N(Nc2cc(Cl)c3cccc(C)c3n2)C1=O` [Compound S00871, 1-[(4-chloro-8-methyl(2-quinolyl))amino]-3,4-dimethylazoline-2,5-dione], the IC50 amounted to 625 nM.
Same read-out and setting: the same measure for `CC1=C(C)C(=O)N(Nc2cc(C(F)(F)F)c3ccccc3n2)C1=O` [Compound S00873, 3,4-dimethyl-1-{[4-(trifluoromethyl)(2-quinolyl)]amino}azoline-2,5-dione]: 300 nM; for `CC1=C(C)C(=O)N(Nc2cc(Cl)c3cc(C)ccc3n2)C1=O` [Compound S00935, 1-[(4-chloro-6-methyl(2-quinolyl))amino]-3,4-dimethylazoline-2,5-dione]: 625 nM.
`CC1=C(C)C(=O)N(Nc2ccc(Br)c3ccccc23)C1=O` [Compound S00942, 1-[(4-bromonaphthyl)amino]-3,4-dimethylazoline-2,5-dione]: the IC50 stood at 625 nM.
As to `CC1=C(C)C(=O)N(Nc2ccc(C(F)(F)F)c(Br)n2)C1=O` [Compound S00994, 1-{[6-bromo-5-(trifluoromethyl)(2-pyridyl)]amino}-3,4-dimethylazoline-2,5-dione], the IC50 amounted to 200 nM.
`CC1=C(C)C(=O)N(Nc2cc(Cl)c3cccc(Cl)c3n2)C1=O` [Compound S01005, 1-[(4,8-dichloro(2-quinolyl))amino]-3,4-dimethylazoline-2,5-dione]: the IC50 worked out at 200 nM.
On to `CC1=C(C)C(=O)N(N(C)c2ccc(C(F)(F)F)c(Br)n2)C1=O` [Compound S01007, 1-{[6-bromo-5-(trifluoromethyl)(2-pyridyl)]methylamino}-3,4-dimethylazoline-2,5-dione], for which the IC50 was determined as 120 nM.
Take `CC1=C(C)C(=O)N(Nc2cc(CO)c3ccc(Br)cc3n2)C1=O` [Compound S01037, 1-{[7-bromo-4-(hydroxymethyl)(2-quinolyl)]amino}-3,4-dimethylazoline-2,5-dione]: the half-maximal inhibitory concentration (IC50) came out at 625 nM.
On to `CC(=O)OCc1cc(NN2C(=O)C(C)=C(C)C2=O)nc2cc(Br)ccc12` [Compound S01047, {2-[(3,4-dimethyl-2,5-dioxoazolinyl)amino]-7-bromo-4-quinolyl}methylacetate], for which the IC50 was determined as 625 nM.
Regarding `CC1=C(C)C(=O)N(Nc2cc(Cl)c3ccc(Cl)c(Cl)c3n2)C1=O` [Compound S01078, 3,4-dimethyl-1-[(4,7,8-trichloro(2-quinolyl))amino]azoline-2,5-dione], the IC50 turned out to be 78 nM.
For the compound `CC1=C(C)C(=O)N(Nc2nc(Cl)cc3ccccc23)C1=O` [Compound S01098, 1-[(3-chloroisoquinolyl)amino]-3,4-dimethylazoline-2,5-dione], the IC50 came to 450 nM.
The same measure, in the same setting: the figure for `COc1ccc(-c2cc(NN3C(=O)C(C)=C(C)C3=O)nc3c(Cl)cccc23)cc1` [Compound S01191, 1-{[8-chloro-4-(4-methoxyphenyl)(2-quinolyl)]amino}-3,4-dimethylazoline-2,5-dione] is 625 nM.
As for `CC1=C(C)C(=O)N(Nc2cc(Cl)c3ccc4ccccc4c3n2)C1=O` [Compound S01207, 1-[(4-chlorobenzo[h]quinolin-2-yl)amino]-3,4-dimethylazoline-2,5-dione], the half-inhibitory concentration (IC50) stood at 625 nM.
On the same count and under the same terms, the same measure for `CC1=C(C)C(=O)N(Nc2cc(Cl)c3cccc(Br)c3n2)C1=O` [Compound S01247, 1-[(8-bromo-4-chloro(2-quinolyl))amino]-3,4-dimethylazoline-2,5-dione]: 78 nM; for `CC1=C(C)C(=O)N(Nc2ccc(C(F)(F)F)c(-c3ccccc3)n2)C1=O` [Compound S01266, 3,4-dimethyl-1-{[6-phenyl-5-(trifluoromethyl)(2-pyridyl)]amino}azoline-2,5-dione]: 200 nM.

The IC50 is the point on the concentration scale where inhibition reaches its midpoint.
